Assays:
CCRF-CEM = test: cells; conditions: Homo sapiens, 48 h
MALME-3M = test: cells; conditions: Homo sapiens, 48 h
HOP-62 = test: cells; conditions: Homo sapiens, HOP-62, 48 h
RPMI-8226 = test: cells; conditions: Homo sapiens, RPMI-8226, 48 h
OVCAR-5 = test: cells; conditions: Homo sapiens, OVCAR-5, 48 h
MDA-MB-435 = test: cells; conditions: Homo sapiens, MDA-MB-435, 48 h
OVCAR-3 = test: cells; conditions: Homo sapiens, OVCAR-3, 48 h
T-47D = test: cells; conditions: Homo sapiens, T47D, 48 h
U251 = test: cells; conditions: Homo sapiens, U-251, 48 h
BT-549 = test: cells; conditions: Homo sapiens, BT-549, 48 h
MOLT-4 = test: cells; conditions: Homo sapiens, MOLT-4, 48 h
COLO 205 = test: cells; conditions: Homo sapiens, COLO 205, 48 h
UO-31 = test: cells; conditions: Homo sapiens, UO-31, 48 h
60 cancer cell lines = test: NCI-60 one-dose screen (10 μM); assay type: cell-based; conditions: Homo sapiens; one dose of 10 μM, mean over 60 cancer cell lines; read-out: Mean Growth Percent (MGP)
From the text: Additionally, the mean of the growth percentages (MGP) of each compound against all the 60 cancer cell lines is also reported, which is used as one of the selection criteria to continue with tests at five concentration doses.

SF-539 = test: cells; conditions: Homo sapiens, SF-539, 48 h
[1] = Hemolytic activity, spectrophotometric; assay type: cell-based, human; conditions: human, human red blood cells (huRBC), 5% hematocrit, 200 μg/mL, 37 °C
A498 = test: cells; conditions: Homo sapiens, A498, 48 h
PC-3 = test: cells; conditions: Homo sapiens, PC-3, 48 h
HCT-116 = test: cells; conditions: Homo sapiens, HCT-116, 48 h
HL-60(TB) = test: cells; conditions: Homo sapiens, HL-60, 48 h
OVCAR-4 = test: cells; conditions: Homo sapiens, OVCAR-4, 48 h, read-out: LC50
NCI-H322M = test: cells; conditions: Homo sapiens, 48 h
SF-295 = test: cells; conditions: Homo sapiens, SF-295, 48 h
UACC-257 = test: cells; conditions: Homo sapiens, UACC-257, 48 h
M14 = test: cells; conditions: Homo sapiens, M14, 48 h
EKVX = test: cells; conditions: Homo sapiens, 48 h
ACHN = test: cells; conditions: Homo sapiens, 48 h
OVCAR-8 = test: cells; conditions: Homo sapiens, OVCAR-8, 48 h
NCI-H226 = test: cells; conditions: Homo sapiens, NCI-H226, 48 h
MCF7 = test: cells; conditions: Homo sapiens, MCF7, 48 h
LOX IMVI = test: cells; conditions: Homo sapiens, 48 h
SF-268 = test: cells; conditions: Homo sapiens, SF-268, 48 h
HS 578T = test: cells; conditions: Homo sapiens, 48 h
HT29 = test: cells; conditions: Homo sapiens, HT-29, 48 h
DU-145 = test: cells; conditions: Homo sapiens, DU-145, 48 h

**Q.** Which GI50 (CCRF-CEM) does the source give for `CN(C)c1nc(NCCNS(=O)(=O)c2ccc(C3=Nc4c(N)nc(N)nc4NC(c4ccc(F)cc4)C3)cc2)nc(Nc2ccc(F)cc2)n1` (stereo not drawn) [31f] here?
**A.** 3.99 µM

**Q.** What about the CC50 (CCRF-CEM; read-out: LC50) of the same compound?
**A.** > 100 µM

**Q.** And the GI50 (MALME-3M)?
**A.** 6.28 µM

**Q.** And the CC50 (MALME-3M; read-out: LC50)?
**A.** > 100 µM

**Q.** What about the GI50 (HOP-62) of the same compound?
**A.** 96 µM

**Q.** And the CC50 (HOP-62; read-out: LC50)?
**A.** > 100 µM

**Q.** And the GI50 (RPMI-8226)?
**A.** 5.25 µM

**Q.** What about the CC50 (RPMI-8226; read-out: LC50) of the same compound?
**A.** > 100 µM

**Q.** What about the GI50 (OVCAR-5) of the same compound?
**A.** > 100 µM

**Q.** And the CC50 (OVCAR-5; read-out: LC50)?
**A.** > 100 µM

**Q.** And the GI50 (MDA-MB-435)?
**A.** 5.93 µM

**Q.** And the CC50 (MDA-MB-435; read-out: LC50)?
**A.** > 100 µM

**Q.** What about the GI50 (OVCAR-3) of the same compound?
**A.** 8.09 µM

**Q.** And the CC50 (OVCAR-3; read-out: LC50)?
**A.** > 100 µM

**Q.** What about the GI50 (T-47D) of the same compound?
**A.** 4.86 µM

**Q.** And the CC50 (T-47D; read-out: LC50)?
**A.** > 100 µM

**Q.** And the GI50 (U251; U251, 48 h)?
**A.** 6.35 µM

**Q.** What about the CC50 (U251; read-out: LC50) of the same compound?
**A.** > 100 µM

**Q.** What about the GI50 (BT-549) of the same compound?
**A.** 3.26 µM

**Q.** And the CC50 (BT-549; read-out: LC50)?
**A.** 18.2 µM

**Q.** What about the GI50 (MOLT-4) of the same compound?
**A.** 2450 nM

**Q.** And the GI50 (COLO 205)?
**A.** 11.8 µM

**Q.** What about the CC50 (COLO 205; read-out: LC50) of the same compound?
**A.** > 100 µM

**Q.** What about the GI50 (UO-31) of the same compound?
**A.** > 100 µM

**Q.** And the CC50 (UO-31; read-out: LC50)?
**A.** > 100 µM

**Q.** What about the activity at 10 µM (60 cancer cell lines) of the same compound?
**A.** 37.1%

**Q.** What about the GI50 (SF-539) of the same compound?
**A.** 3.89 µM

**Q.** And the CC50 (SF-539; read-out: LC50, SF-539, 48 h)?
**A.** > 100 µM

**Q.** What about the hemolysis at 24 h, 200 µg/mL [1] of the same compound?
**A.** 2.4%

**Q.** What about the GI50 (A498) of the same compound?
**A.** 22.1 µM

**Q.** What about the CC50 (A498; read-out: LC50) of the same compound?
**A.** > 100 µM

**Q.** And the GI50 (PC-3)?
**A.** 5.04 µM

**Q.** And the CC50 (PC-3; read-out: LC50)?
**A.** > 100 µM

**Q.** And the GI50 (HCT-116)?
**A.** 4.54 µM

**Q.** What about the CC50 (HCT-116; read-out: LC50) of the same compound?
**A.** > 100 µM

**Q.** What about the GI50 (HL-60(TB)) of the same compound?
**A.** 3.12 µM

**Q.** What about the CC50 (HL-60(TB); read-out: LC50) of the same compound?
**A.** > 100 µM

**Q.** What about the CC50 (OVCAR-4) of the same compound?
**A.** > 100 µM

**Q.** What about the GI50 (NCI-H322M) of the same compound?
**A.** > 100 µM

**Q.** And the CC50 (NCI-H322M; read-out: LC50)?
**A.** > 100 µM

**Q.** And the GI50 (SF-295)?
**A.** 6.71 µM

**Q.** And the CC50 (SF-295; read-out: LC50)?
**A.** > 100 µM

**Q.** What about the GI50 (UACC-257) of the same compound?
**A.** 11.4 µM

**Q.** And the CC50 (UACC-257; read-out: LC50)?
**A.** > 100 µM

**Q.** And the GI50 (M14)?
**A.** 3.84 µM

**Q.** What about the CC50 (M14; read-out: LC50) of the same compound?
**A.** 25.3 µM

**Q.** What about the GI50 (EKVX) of the same compound?
**A.** 5.17 µM

**Q.** And the CC50 (EKVX; read-out: LC50)?
**A.** > 100 µM

**Q.** And the GI50 (ACHN)?
**A.** > 100 µM

**Q.** And the CC50 (ACHN; read-out: LC50)?
**A.** > 100 µM

**Q.** And the GI50 (OVCAR-8)?
**A.** 12 µM

**Q.** And the CC50 (OVCAR-8; read-out: LC50)?
**A.** > 100 µM

**Q.** And the GI50 (NCI-H226)?
**A.** > 100 µM

**Q.** What about the CC50 (NCI-H226; read-out: LC50) of the same compound?
**A.** > 100 µM

**Q.** And the GI50 (MCF7)?
**A.** 3.16 µM

**Q.** What about the CC50 (MCF7; read-out: LC50) of the same compound?
**A.** 43.7 µM

**Q.** What about the GI50 (LOX IMVI) of the same compound?
**A.** 2620 nM

**Q.** What about the CC50 (LOX IMVI; read-out: LC50, LOX IMVI, 48 h) of the same compound?
**A.** 9.13 µM

**Q.** And the GI50 (SF-268)?
**A.** 4.83 µM

**Q.** And the CC50 (SF-268; read-out: LC50)?
**A.** > 100 µM

**Q.** And the GI50 (HS 578T)?
**A.** 5.7 µM

**Q.** And the CC50 (HS 578T; read-out: LC50)?
**A.** > 100 µM

**Q.** And the GI50 (HT29)?
**A.** 3.88 µM

**Q.** What about the CC50 (HT29; read-out: LC50) of the same compound?
**A.** > 100 µM

**Q.** What about the GI50 (DU-145) of the same compound?
**A.** 52 µM

**Q.** And the CC50 (DU-145; read-out: LC50)?
**A.** > 100 µM
